Results published in patent US10196364B2, “Pyrimidine carboxamides as sodium channel blockers” (Purdue Pharma L.P., priority 2013, dated 2019).

Legend:
[1] = system: SNL-induced mechanical hyperalgesia; assay: SNL-induced mechanical hyperalgesia model in rats (paw pressure test, PWT); format: in vivo, rat; details: dosed orally at 100 mg/kg (vehicle: 0.5% methyl cellulose) one hour before testing
Method: Each experiment uses rats weighing between 200-260 g at the start of the experiment. The rats are group-housed and have free access to food and water at all times, except prior to oral administration of a test compound when food is removed for 16 h before dosing. A control group acts as a comparison to rats treated with a Compound of the Disclosure. The control group is administered the carrier as used for the test compound. The volume of carrier administered to the control group is the same as the volume of carrier and test compound administered to the test group. In the Chung model, the spinal nerve ligation (SNL) model of neuropathic pain is used to produce mechanical hyperalgesia, thermal hyperalgesia, and tactile allodynia in rats. Surgery is performed under isoflurane/O2 inhalation anesthesia. Following induction of anesthesia a 3 cm incision is made and the left paraspinal muscles are separated from the spinous process at the L4-S2 levels. The L6 transverse process is carefully removed with a pair of small rongeurs to identify visually the L4-L6 spinal nerves. […] The animals are assessed for response to noxious mechanical stimuli by determining PWT, as described below, prior to surgery (baseline), then immediately prior to and 1, 3, and 5 hours after being administered a Compound of the Disclosure or vehicle, for the left rear paw of the animal. The animals can also be assessed for response to noxious thermal stimuli or for tactile allodynia, as described below. […] Sensitivity to noxious mechanical stimuli was measured in animals using the paw pressure test to assess mechanical hyperalgesia. In rats, hind paw withdrawal thresholds (“PWT”), measured in grams, in response to a noxious mechanical stimulus were determined using an analgesymeter (Model 7200, commercially available from Ugo Basile of Italy), as described in Stein (Biochemistry & Behavior 31: 451-455 (1988)). […] PWT was determined once for each rat at each time point. PWT can be measured only in the injured paw, or in both the injured and non-injured paw. […]

human Nav1.7 = human Nav1.7 (Homo sapiens, UniProt Q15858); assay: FLIPR membrane potential dye assay (alternative fluorescence assay) in Nav1.7 expressing cells; format: cell-based; details: Table 7
Chain of human Nav1.7 (Q15858 1-1977 isoform Q15858-3): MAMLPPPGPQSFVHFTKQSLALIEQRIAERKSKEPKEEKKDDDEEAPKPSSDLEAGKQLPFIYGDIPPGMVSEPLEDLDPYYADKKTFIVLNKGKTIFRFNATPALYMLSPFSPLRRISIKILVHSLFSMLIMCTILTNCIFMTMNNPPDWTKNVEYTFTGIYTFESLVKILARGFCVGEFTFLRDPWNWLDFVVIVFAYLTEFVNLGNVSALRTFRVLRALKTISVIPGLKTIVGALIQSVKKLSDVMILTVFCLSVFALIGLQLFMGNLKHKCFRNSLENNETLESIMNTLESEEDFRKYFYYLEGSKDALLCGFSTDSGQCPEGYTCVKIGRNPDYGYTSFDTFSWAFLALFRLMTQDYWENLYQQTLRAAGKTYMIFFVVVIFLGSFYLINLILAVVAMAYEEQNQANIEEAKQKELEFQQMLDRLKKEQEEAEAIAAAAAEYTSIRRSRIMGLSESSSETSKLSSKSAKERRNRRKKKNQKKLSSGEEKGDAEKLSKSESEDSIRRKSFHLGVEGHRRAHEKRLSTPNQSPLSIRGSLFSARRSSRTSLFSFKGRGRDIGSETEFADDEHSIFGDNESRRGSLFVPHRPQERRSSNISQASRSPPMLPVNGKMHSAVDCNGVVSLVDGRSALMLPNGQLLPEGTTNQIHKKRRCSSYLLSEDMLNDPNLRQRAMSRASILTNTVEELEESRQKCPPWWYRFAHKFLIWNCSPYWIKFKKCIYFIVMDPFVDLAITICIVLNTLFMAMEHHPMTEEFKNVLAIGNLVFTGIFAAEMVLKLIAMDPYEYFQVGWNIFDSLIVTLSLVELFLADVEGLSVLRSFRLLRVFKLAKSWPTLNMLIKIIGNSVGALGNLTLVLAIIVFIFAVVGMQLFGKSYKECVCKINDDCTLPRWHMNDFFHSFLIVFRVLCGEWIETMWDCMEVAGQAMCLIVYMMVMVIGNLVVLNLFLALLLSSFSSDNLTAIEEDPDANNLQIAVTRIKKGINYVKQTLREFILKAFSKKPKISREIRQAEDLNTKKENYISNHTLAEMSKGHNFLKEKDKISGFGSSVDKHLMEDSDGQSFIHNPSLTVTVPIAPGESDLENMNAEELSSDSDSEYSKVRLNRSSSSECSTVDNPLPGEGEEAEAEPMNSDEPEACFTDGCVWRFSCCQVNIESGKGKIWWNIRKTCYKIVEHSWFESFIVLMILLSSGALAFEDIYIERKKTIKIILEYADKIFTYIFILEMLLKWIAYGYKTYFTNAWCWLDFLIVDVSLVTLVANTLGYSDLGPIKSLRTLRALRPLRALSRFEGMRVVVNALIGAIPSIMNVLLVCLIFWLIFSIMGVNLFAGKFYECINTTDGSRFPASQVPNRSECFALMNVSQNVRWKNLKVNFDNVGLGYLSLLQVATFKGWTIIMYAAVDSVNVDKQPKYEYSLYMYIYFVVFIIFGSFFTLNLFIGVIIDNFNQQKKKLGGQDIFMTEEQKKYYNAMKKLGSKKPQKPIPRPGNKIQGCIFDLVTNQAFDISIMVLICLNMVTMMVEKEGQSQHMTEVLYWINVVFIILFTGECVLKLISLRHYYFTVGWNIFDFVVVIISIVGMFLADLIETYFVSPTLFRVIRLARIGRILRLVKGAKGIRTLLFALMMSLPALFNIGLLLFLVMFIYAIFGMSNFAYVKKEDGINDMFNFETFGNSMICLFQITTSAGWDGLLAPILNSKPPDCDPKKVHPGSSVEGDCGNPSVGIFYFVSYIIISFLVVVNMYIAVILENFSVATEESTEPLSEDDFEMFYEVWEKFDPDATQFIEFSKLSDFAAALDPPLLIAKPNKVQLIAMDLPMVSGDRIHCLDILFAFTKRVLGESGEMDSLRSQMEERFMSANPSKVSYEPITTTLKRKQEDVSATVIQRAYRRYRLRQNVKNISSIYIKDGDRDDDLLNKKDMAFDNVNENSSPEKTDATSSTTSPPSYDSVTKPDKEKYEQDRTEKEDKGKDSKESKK

hNav1.7 = hNav1.7 (Homo sapiens, UniProt Q15858); assay: Electrophysiology (EP) whole-cell patch clamp assay in hNav1.7 expressing HEK-293 cells; format: cell-based; details: Table 7; affinity for inactivated channels; read-out: Nav1.7 Activity (μM) EP assay Ki
Chain of hNav1.7 (Q15858 1-1977 isoform Q15858-3): as above
Method: The hNav1.7 expressing HEK-293 cells were plated on 35 mm culture dishes pre-coated with poly-D-lysine in standard DMEM culture media (Mediatech, Inc., Herndon, Va.) and incubated in a 5% CO2 incubator at 37° C. Cultured cells were used approximately 12-48 h after plating.
On the day of experimentation, the 35 mm dish was placed on the stage of an inverted microscope equipped with a perfusion system that continuously perfuses the culture dish with fresh recording media. A gravity driven superfusion system was used to apply test solutions directly to the cell under evaluation. This system consists of an array of glass pipette glass connected to a motorized horizontal translator. The outlet of the shooter was positioned approximately 100 μm from the cell of interest.
Whole cell currents were recorded using the whole-cell patch clamp configuration using an Axopatch 200B amplifier (Axon Instruments, Foster City Calif.), 1322A A/D converter (Axon Instruments) and pClamp software (v. 8; Axon Instruments) and stored on a personal computer. Gigaseals were formed and the whole-cell configuration was established in voltage clamp mode, and membrane currents generated by hNav1.7 were recorded in gap-free mode. Borosilicate glass pipettes have resistance values between 1.5 and 2.0 MΩ when filled with pipette solution and series resistance (<5 MΩ) was compensated 75-80%. Signals were sampled at 50 kHz and low pass filtered at 3 kHz.
After establishing the whole-cell configuration in voltage clamp mode, two voltage protocols were run to establish: 1) the holding potential; and 2) the test potential for each cell.
To determine a membrane potential at which the majority of channels are in the resting state, a standard steady-state inactivation (SSIN) protocol was run using 100 ms prepulses×10 mV depolarizing steps. The holding potential for testing resting block (Vh1) was 20 mV more hyperpolarized than the first potential where inactivation is observed with the inactivation protocol.
From this holding potential a standard I-V protocol was run to determine the potential at which the maximal current (Imax) was elicited. This potential was the test potential (Vt).
The compound testing protocol was a series of 10 ms depolarizations from the Vh1 (determined from the SSIN) to the Vt (determined from the I-V protocol) repeated every 10-15 seconds. […] Washout of the compound was attempted by superfusing with control solution once steady-state block was observed. The fractional response was calculated as follows: FR=I(after drug)/I(control), where I is the peak current amplitude and was used for estimating resting block dissociation constant, Kr: Kr=[drug]*{FR/(1−FR)}, where [drug] is the concentration of a drug.
To assess the block of inactivated channels the holding potential was depolarized such that 20-50% of the current amplitude was reduced when pulsed to the same Vt as above. The magnitude of this depolarization depends upon the initial current amplitude and the rate of current loss due to slow inactivation. This was the second holding potential (Vh2). The current reduction was recorded to determine the fraction of available channels at this potential (h). h=I@Vh2/Imax.
At this membrane voltage a proportion of channels are in the inactivated state, and thus inhibition by a blocker includes interaction with both resting and inactivated channels.
To determine the potency of the test compound on inactivated channels, a series of currents were elicited by 10 ms voltage steps from Vh2 to Vt every 10-15 seconds. After establishing a stable baseline, the low concentration of the compound was applied. Multiple cumulative concentrations may have to be applied to identify a concentration that will block between 40-60% of the current. Washout was attempted to re-establish baseline. Fractional responses were measured with respect to a projected baseline to determine Kapp. Kapp=[drug]*{FR/(1−FR)}, where [drug] is the concentration of a drug. […]

| SMILES | IC50 (human Nav1.7) [µM] | Ki (hNav1.7) [µM] | SNL-induced mechanical hyperalgesia in rats [1] |
| --- | --- | --- | --- |
| C[C@H](Nc1cc(C(N)=O)nc(-c2ccc(Oc3ccc(OC(F)(F)F)cc3)cc2)n1)C(N)=O [Cpd No. 84, (S)-6-((1-amino-1-oxopropan-2-yl)amino)-2-(4-(4-(trifluoromethoxy)phenoxy)phenyl)pyrimidine-4-carboxamide] | – | – | reduced SNL-induced mechanical hyperalgesia |
| CCN(CC)Cc1cc(C(F)(F)F)ccc1Oc1ccc(-c2nc(N[C@H](C)C(N)=O)cc(C(N)=O)n2)cc1 [Cpd No. 215, (R)-6-((1-amino-1-oxopropan-2-yl)amino)-2-(4-(2-((diethylamino)methyl)-4-(trifluoromethyl)phenoxy)phenyl)pyrimidine-4-carboxamide] | 7.35 | 1.39 | – |
| C[C@H](Nc1cc(C(N)=O)nc(-c2ccc(N3Cc4cc(Cl)ccc4OCC3=O)cc2)n1)C(N)=O [Cpd No. 222, (S)-6-((1-amino-1-oxopropan-2-yl)amino)-2-(4-(7-chloro-3-oxo-2,3-dihydrobenzo-[f][1,4]oxazepin-4(5H)-yl)phenyl)pyrimidine-4-carboxamide] | > 20 | – | – |
| C[C@H](Nc1cc(C(N)=O)nc(-c2ccc(N3CCOc4cc(F)ccc43)cc2)n1)C(N)=O [Cpd No. 223, (S)-6-((1-amino-1-oxopropan-2-yl)amino)-2-(4-(7-fluoro-2,3-dihydro-4H-benzo[b][1,4]oxazin-4-yl)phenyl)pyrimidine-4-carboxamide] | 3.78 | – | – |
| NC(=O)c1cc(O[C@H]2CCNC2=O)nc(N2[C@@H]3CC[C@H]2C[C@@H](Oc2ccc(C(F)(F)F)cn2)C3)n1 [Cpd No. 224, 6-(((S)-2-oxopyrrolidin-3-yl)oxy)-2-((1R,3S,5S)-3-((5-(trifluoromethyl)pyridin-2-yl)oxy)-8-azabicyclo[3.2.1]octan-8-yl)pyrimidine-4-carboxamide] | 1.01 | 0.81 | – |
| C[C@H](Nc1cc(C(N)=O)nc(N2CC[C@H](Oc3ccc(C(F)(F)F)cc3)C2)n1)C(N)=O [Cpd No. 225, 6-(((S)-1-amino-1-oxopropan-2-yl)amino)-2-((S)-3-(4-(trifluoro-methyl)phenoxy)pyrrolidin-1-yl)pyrimidine-4-carboxamide] | 10 to 20 | – | – |
| NC(=O)c1cc(O[C@H]2CCNC2=O)nc(-c2ccc(Oc3ccc(C(F)(F)F)cc3)cc2CN2CCCCC2)n1 [Cpd No. 231, (S)-6-((2-oxopyrrolidin-3-yl)oxy)-2-(2-(piperidin-1-ylmethyl)-4-(4-(trifluoromethyl)-phenoxy)phenyl)pyrimidine-4-carboxamide] | > 20 | – | – |
| NC(=O)c1cc(O[C@H]2CCNC2=O)nc(-c2ccc(Oc3ccc(C(F)(F)F)cc3)cc2CN2CCOCC2)n1 [Cpd No. 232, (S)-2-(2-(morpholinomethyl)-4-(4-(trifluoromethyl)-phenoxy)phenyl)-6-((2-oxopyrrolidin-3-yl)oxy)-pyrimidine-4-carboxamide] | 10 to 20 | – | – |
| Cn1cc(COc2ccc(-c3nc(N[C@H]4CCNC4=O)cc(C(N)=O)n3)cc2)cn1 [Cpd No. 233, (S)-2-(4-((1-methyl-1H-pyrazol-4-yl)methoxy)phenyl)-6-((2-oxopyrrolidin-3-yl)amino)-pyrimidine-4-carboxamide] | 10 to 20 | – | – |
| C[C@H](Oc1cc(C(N)=O)nc(-c2ccc(Oc3ccc(C(F)(F)F)cc3)cc2)n1)C(N)=O [compound 98] | – | – | reduced SNL-induced mechanical hyperalgesia |
| NC(=O)c1cc(N[C@H]2CCNC2=O)nc(-c2ccc(Oc3ccc(C(F)(F)F)cn3)cc2)n1 [compound 99, (S)-6-((2-oxopyrrolidin-3-yl)amino)-2-(4-((5-(trifluoromethyl)pyridin-2-yl)oxy)phenyl)pyrimidine-4-carboxamide] | – | – | reduced SNL-induced mechanical hyperalgesia |

Now from value to molecule, other results behind:

| IC50 (human Nav1.7) [µM] | Ki (hNav1.7) [µM] | SMILES | SNL-induced mechanical hyperalgesia in rats [1] |
| --- | --- | --- | --- |
| 3.23 | – | C[C@H](Nc1cc(C(N)=O)nc(N2CC[C@@H](Oc3ccc(C(F)(F)F)cc3)C2)n1)C(N)=O [Cpd No. 226, 6-(((S)-1-amino-1-oxopropan-2-yl)amino)-2-((R)-3-(4-(trifluoromethyl)-phenoxy)pyrrolidin-1-yl)pyrimidine-4-carboxamide] | – |
| 0.55 | 0.15 | NC(=O)c1cc(O[C@H]2CCNC2=O)nc(-c2ccc(Oc3ccc(C(F)(F)F)cn3)cc2)n1 [Cpd No. 227, (S)-6-((2-oxopyrrolidin-3-yl)oxy)-2-(4-((5-(trifluoro-methyl)pyridin-2-yl)oxy)phenyl)pyrimidine-4-carboxamide] | – |
| 1.1 | 1.1 | C[C@H](Nc1cc(C(N)=O)nc(-c2ccc(Cc3ccc(C(F)(F)F)cn3)cc2)n1)C(N)=O [Cpd No. 228, (S)-6-((1-amino-1-oxopropan-2-yl)amino)-2-(4-((5-(trifluoro-methyl)pyridin-2-yl)methyl)-phenyl)pyrimidine-4-carboxamide] | – |
| 0.58 | 0.62 | NC(=O)c1cc(O[C@H]2CCNC2=O)nc(-c2ccc(Cc3ccc(C(F)(F)F)cn3)cc2)n1 [Cpd No. 229, (S)-6-((2-oxopyrrolidin-3-yl)oxy)-2-(4-((5-(trifluoromethyl)pyridin-2-yl)methyl)phenyl)pyrimidine-4-carboxamide] | – |
| 1.72 | 0.74 | NC(=O)c1cc(O[C@H]2CCNC2=O)nc(-c2ccc(Oc3ccc(C(F)(F)F)cc3CN3CCCC3)cc2)n1 [Cpd No. 230, (S)-6-((2-oxopyrrolidin-3-yl)oxy)-2-(4-(2-(pyrrolidin-1-ylmethyl)-4-(trifluoromethyl)-phenoxy)phenyl)pyrimidine-4-carboxamide] | – |
| 1.2 | 0.67 | NC(=O)c1cc(O[C@H]2CCNC2=O)nc(-c2ccc(Oc3ccc(C4CC4)cn3)cc2)n1 [Cpd No. 234, (S)-2-(4-((5-cyclopropylpyridin-2-yl)oxy)phenyl)-6-((2-oxopyrrolidin-3-yl)oxy)-pyrimidine-4-carboxamide] | – |
